Measured values from US6737383B1, “Herbicidal oxadiazolidines” (priority 1999, dated 2004).

Key:
blackgrass = assay: Test B pre/postemergence blackgrass; type: in vivo, Alopecurus myosuroides
Procedure, shortened: (§1)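 Response is a visual 0-to-10 score relative to untreated plants, where 0 means no effect and 10 means complete control, taken twelve to sixteen days after application. Treatments went onto soil at planting and onto foliage of 1- to 4-leaf plants, using a surfactant-containing non-phytotoxic solvent.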

cocklebur = assay: Test B pre/postemergence cocklebur; type: in vivo, Xanthium strumarium
Procedure, shortened: as §1

corn = assay: Test B pre/postemergence corn; type: in vivo, Zea mays
Procedure, shortened: as §1

crabgrass = assay: Test B pre/postemergence crabgrass; type: in vivo, Digitaria sanguinalis
Procedure, shortened: as §1

giant foxtail = assay: Test B pre/postemergence giant foxtail; type: in vivo, Setaria faberii
Procedure, shortened: as §1

morningglory = assay: Test B pre/postemergence morningglory; type: in vivo, Ipomoea hederacea
Procedure, shortened: as §1

pigweed = assay: Test B pre/postemergence pigweed; type: in vivo, Amaranthus retroflexus
Procedure, shortened: as §1

rape = assay: Test B pre/postemergence rape; type: in vivo, Brassica napus
Procedure, shortened: as §1

soybean = assay: Test B pre/postemergence soybean; type: in vivo, Glycine max
Procedure, shortened: as §1

sugar beet = assay: Test B pre/postemergence sugar beet; type: in vivo, Beta vulgaris
Procedure, shortened: as §1

velvetleaf = assay: Test B pre/postemergence velvetleaf; type: in vivo, Abutilon theophrasti
Procedure, shortened: as §1

wheat = assay: Test B pre/postemergence wheat; type: in vivo, Triticum aestivum
Procedure, shortened: as §1

purple nutsedge = assay: Test B pre/postemergence purple nutsedge; type: in vivo, Cyperus rotundus
Procedure, shortened: as §1

rice = assay: Test B flood test rice; type: in vivo, Oryza sativa
Procedure, shortened: (§2)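 Read-out is a visual response score from 0 (no effect) to 10 (complete control), assigned by comparison with untreated controls. Treatment was applied at the 2-leaf stage, and plants stayed in the greenhouse for twelve to sixteen days before scoring.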

smallflower flatsedge = assay: Test B flood test smallflower flatsedge; type: in vivo, Cyperus difformis
Procedure, shortened: as §2

duck salad = assay: Test B flood test duck salad; type: in vivo, Heteranthera limosa
Procedure, shortened: as §2

[1] = Postemergence, Rate 62 g/ha, scale 0 to 10, 0 is no effect, 10 is complete control
[2] = Postemergence, Rate 250 g/ha, scale 0 to 10, 0 no effect, 10 complete control
[3] = Preemergence, Rate 62 g/ha, scale 0 to 10 (0 no effect, 10 complete control)
[4] = Preemergence, Rate 125 g/ha, scale 0 to 10 (0 no effect, 10 complete control)
[5] = Preemergence, Rate 250 g/ha, scale of 0 to 10 where 0 is no effect and 10 is complete control
[6] = Preemergence, Rate 500 g/ha, scale 0 (no effect) to 10 (complete control)
[7] = Rate 125 g/ha, Postemergence, scale 0 to 10, 0 no effect, 10 complete control
[8] = Rate 500 g/ha, Postemergence, scale 0 to 10, 0 no effect, 10 complete control
[9] = Rate 125 g/ha, Postemergence section (flood test species), scale 0 to 10, 0 no effect, 10 complete control
[10] = Rate 250 g/ha, headed Pre-emergence (flood test species), scale 0 to 10 (0 no effect, 10 complete control)
[11] = Rate 500 g/ha, headed Pre-emergence (flood test species), scale 0 to 10 (0 no effect, 10 complete control)
[12] = Rate 500 g/ha, listed under Postemergence (flood test species), scale 0 to 10, 0 no effect, 10 complete control
[13] = Rate 1000 g/ha, Pre-emergence (as headed), scale 0 to 10
[14] = Rate 2000 g/ha, Pre-emergence (as headed), scale 0 to 10
[15] = flood test, listed under Postemergence, Rate 250 g/ha, scale 0 to 10, 0 no effect, 10 complete control

SMILES: CC(C)N(C(=O)n1oc(=O)n(Cc2cccs2)c1=O)c1ccc(F)cc1F [Compound 86]
- Blackgrass plant response rating (blackgrass; [1]): 0
- Blackgrass plant response rating (blackgrass; [2]): 1
- Blackgrass plant response rating (blackgrass; [3]): 2
- Plant response rating, Blackgrass (blackgrass; [4]): 3
- Plant response rating, Blackgrass (blackgrass; [5]): 5
- Blackgrass plant response rating (blackgrass; [6]): 8
- Blackgrass plant response rating (blackgrass; [7]): 0
- Blackgrass plant response rating (blackgrass; [8]): 3
- Cocklebur plant response rating (cocklebur; [1]): 0
- Cocklebur plant response rating (cocklebur; [2]): 2
- Cocklebur plant response rating (cocklebur; [3]): 0
- Plant response rating, Cocklebur (cocklebur; [4]): 0
- Plant response rating, Cocklebur (cocklebur; [5]): 0
- Cocklebur plant response rating (cocklebur; [6]): 0
- Cocklebur plant response rating (cocklebur; [7]): 1
- Cocklebur plant response rating (cocklebur; [8]): 2
- Corn plant response rating (corn; [1]): 0
- Corn plant response rating (corn; [2]): 00
- Corn plant response rating (corn; [3]): 0
- Plant response rating, Corn (corn; [4]): 0
- Plant response rating, Corn (corn; [5]): 0
- Corn plant response rating (corn; [6]): 0
- Corn plant response rating (corn; [7]): 0
- Corn plant response rating (corn; [8]): 0
- Crabgrass plant response rating (crabgrass; [1]): 2
- Crabgrass plant response rating (crabgrass; [2]): 5
- Crabgrass plant response rating (crabgrass; [3]): 5
- Plant response rating, Crabgrass (crabgrass; [4]): 8
- Plant response rating, Crabgrass (crabgrass; [5]): 10
- Crabgrass plant response rating (crabgrass; [6]): 10
- Crabgrass plant response rating (crabgrass; [7]): 3
- Crabgrass plant response rating (crabgrass; [8]): 9
- Giant foxtail plant response rating (giant foxtail; [1]): 0
- Giant foxtail plant response rating (giant foxtail; [2]): 3
- Giant foxtail plant response rating (giant foxtail; [3]): 8
- Plant response rating, Giant foxtail (giant foxtail; [4]): 9
- Plant response rating, Giant foxtail (giant foxtail; [5]): 10
- Giant foxtail plant response rating (giant foxtail; [6]): 10
- Giant foxtail plant response rating (giant foxtail; [7]): 2
- Giant foxtail plant response rating (giant foxtail; [8]): 5
- Morningglory plant response rating (morningglory; [1]): 4
- Morningglory plant response rating (morningglory; [2]): 7
- Morningglory plant response rating (morningglory; [3]): 0
- Plant response rating, Morningglory (morningglory; [4]): 0
- Plant response rating, Morningglory (morningglory; [5]): 0
- Morningglory plant response rating (morningglory; [6]): 0
- Morningglory plant response rating (morningglory; [7]): 7
- Morningglory plant response rating (morningglory; [8]): 8
- Redroot pigweed plant response rating (pigweed; [1]): 0
- Redroot pigweed plant response rating (pigweed; [2]): 5
- Redroot pigweed plant response rating (pigweed; [3]): 2
- Plant response rating, Redroot pigweed (pigweed; [4]): 4
- Plant response rating, Redroot pigweed (pigweed; [5]): 8
- Redroot pigweed plant response rating (pigweed; [6]): 8
- Redroot pigweed plant response rating (pigweed; [7]): 0
- Redroot pigweed plant response rating (pigweed; [8]): 7
- Rape plant response rating (rape; [1]): 0
- Rape plant response rating (rape; [2]): 2
- Rape plant response rating (rape; [3]): 0
- Plant response rating, Rape (rape; [4]): 0
- Plant response rating, Rape (rape; [5]): 0
- Rape plant response rating (rape; [6]): 4
- Rape plant response rating (rape; [7]): 0
- Rape plant response rating (rape; [8]): 4
- Soybean plant response rating (soybean; [1]): 2
- Soybean plant response rating (soybean; [2]): 2
- Soybean plant response rating (soybean; [3]): 0
- Plant response rating, Soybean (soybean; [4]): 0
- Plant response rating, Soybean (soybean; [5]): 0
- Soybean plant response rating (soybean; [6]): 0
- Soybean plant response rating (soybean; [7]): 2
- Soybean plant response rating (soybean; [8]): 3
- Sugarbeets plant response rating (sugar beet; [1]): 0
- Sugarbeets plant response rating (sugar beet; [2]): 3
- Sugarbeets plant response rating (sugar beet; [3]): 0
- Plant response rating, Sugarbeets (sugar beet; [4]): 0
- Plant response rating, Sugarbeets (sugar beet; [5]): 3
- Sugarbeets plant response rating (sugar beet; [6]): 3
- Sugarbeets plant response rating (sugar beet; [7]): 3
- Sugarbeets plant response rating (sugar beet; [8]): 6
- Velvetleaf plant response rating (velvetleaf; [1]): 0
- Velvetleaf plant response rating (velvetleaf; [2]): 0
- Velvetleaf plant response rating (velvetleaf; [3]): 0
- Plant response rating, Velvetleaf (velvetleaf; [4]): 0
- Plant response rating, Velvetleaf (velvetleaf; [5]): 3
- Velvetleaf plant response rating (velvetleaf; [6]): 5
- Velvetleaf plant response rating (velvetleaf; [7]): 0
- Velvetleaf plant response rating (velvetleaf; [8]): 2
- Wheat plant response rating (wheat; [1]): 0
- Wheat plant response rating (wheat; [2]): 0
- Wheat plant response rating (wheat; [3]): 0
- Plant response rating, Wheat (wheat; [4]): 0
- Plant response rating, Wheat (wheat; [5]): 0
- Wheat plant response rating (wheat; [6]): 0
- Wheat plant response rating (wheat; [7]): 0
- Wheat plant response rating (wheat; [8]): 0
- Nutsedge plant response rating (purple nutsedge; [1]): 0
- Nutsedge plant response rating (purple nutsedge; [2]): 0
- Nutsedge plant response rating (purple nutsedge; [3]): 0
- Plant response rating, Nutsedge (purple nutsedge; [4]): 0
- Plant response rating, Nutsedge (purple nutsedge; [5]): 0
- Nutsedge plant response rating (purple nutsedge; [6]): 0
- Nutsedge plant response rating (purple nutsedge; [7]): 0
- Nutsedge plant response rating (purple nutsedge; [8]): 0
- Rice plant response rating (rice; [1]): 0
- Rice plant response rating (rice; [9]): 0
- Rice plant response rating (rice; [10]): 0
- Plant response rating, Rice (rice; [11]): 0
- Rice plant response rating (rice; [12]): 0
- Rice plant response rating (rice; [13]): 0
- Rice plant response rating (rice; [14]): 8
- Rice plant response rating (rice; [15]): 0
- S. Flatsedge plant response rating (smallflower flatsedge; [1]): 0
- S. Flatsedge plant response rating (smallflower flatsedge; Pre-emergence, Rate 1000 g/ha, scale 0 to 10 (0 no effect, 10 complete control)): 0
- S. Flatsedge plant response rating (smallflower flatsedge; [9]): 0
- S. Flatsedge plant response rating (smallflower flatsedge; [10]): 0
- Plant response rating, S. Flatsedge (smallflower flatsedge; [11]): 0
- S. Flatsedge plant response rating (smallflower flatsedge; [12]): 0
- S. Flatsedge plant response rating (smallflower flatsedge; [14]): 0
- S. Flatsedge plant response rating (smallflower flatsedge; [15]): 0
- Ducksalad plant response rating (duck salad; [1]): 0
- Ducksalad plant response rating (duck salad; [9]): 0
- Ducksalad plant response rating (duck salad; [10]): 0
- Plant response rating, Ducksalad (duck salad; [11]): 0
- Ducksalad plant response rating (duck salad; [12]): 0
- Ducksalad plant response rating (duck salad; [13]): 0
- Ducksalad plant response rating (duck salad; [14]): 0
- Ducksalad plant response rating (duck salad; [15]): 0
